Patent EP2905286A1, “Novel diazabicyclohydrocarbon-Pt complexes and the use thereof as pharmaceuticals” (Studiengesellschaft Kohle mbH, priority 2014, dated 2015)

How the values were obtained:
A2780 = assay: MTT cell viability assay; type: cell-based; details: A2780 cells, 72 h incubation
Method: (§1) The rate of cell-survival under the action of test compounds was evaluated by an improved MTT assay as previously described for 3-(4,5-dimethylthiazol-2-yl)-2,5-diphenyltetrazolium bromide (MTT, Applichem, Germany) (Mueller, H., Kassack, M. U., Wiese, M. J. Biomol. Screen. 2004, 9, 506-515).
(§2) The assay is based on the ability of viable cells to metabolize yellow MTT to violet formazane crystals that can be detected spectrophotometrically. In brief, A2780 (ECACC, Salisbury, UK) and A2780 CisR cells (established by exposure of A2780 cells to weekly cycles of 2 µmol/L cisplatin over a period of 24 weeks) were seeded at a density of 8,000 cells/well in 96well plates (Corning, Germany) in 90 µL drug-free complete medium. After an incubation period of 24 h at 37 °C under humidified air supplemented with 5% CO2, cells were exposed to dilutions of the test compounds in 100 µL/well. Stock solutions were prepared in a concentration of 10^-2 M in water, and serial dilutions were prepared by using sodium chloride 0.9%. Incubation was ended after 72 h and cell survival was determined by addition of 25 µL/well MTT solution (5 mg/mL in phosphate buffered saline). After an incubation period of 10 min at 37 °C, the medium was carefully removed. The intracellular formazan product was solubilized by adding 75 µl DMSO/well. Absorbance was measured at 544 nm and 690 nm with a FLUOstar microplate-reader (BMG LabTech, Offenburg, Germany). The absorbance of untreated control cells was taken as 100% viability. All tests were performed in triplicate.
(§3) Indicated are mean values ± standard error of the mean. Concentration/inhibition curves were fitted to the data by nonlinear regression analysis using the four parameter logistic equation (GraphPad Prism).

A2780 CisR cells = assay: MTT cell viability assay, cisplatin resistance model; type: cell-based; details: for IC50: A2780 CisR cells, 72 h incubation, MTT; for resistance factor: ratio of IC50 in A2780 CisR cells to IC50 in parental A2780 cells
Method: as §1, §2, §3
Values are means ± SEM derived from a representative experiment performed in triplicate. The resistance factor was calculated as the ratio of the IC50 value of the A2780 CisR cells and the IC50 value of the corresponding sensitive parental A2780 cell line.

[1] = Solubility observed during preparation; type: physicochemical; details: for solubility in solvents in general: most or all solvents (ambient temperature, including CH2Cl2 and THF; including DMSO)

Compound | IC50 (A2780) | IC50 (A2780 CisR cells) | resistance factor (A2780 CisR cells) | solubility in DMF [1] | solubility in DMSO [1] | solubility in solvents in general [1] | solubility in water [1]
O=C1[O][Pt]2([NH][C@@H]3CCCC[C@H]3[NH]2)[O]C1=O (relative stereo) [oxaliplatin, trans-(R,R)-1,2-diamino-cyclohexane platinum(II)oxalate, reference compound] | 0.21 µM | 0.95 µM | 4.52 | – | – | – | –
C1NCC2CNCC1C2.[Cl][Pt][Cl] [1a, (C7H14N2)PtCl2] | 4.2 µM | 10.6 µM | 2.52 | dissolve increasingly well | dissolve increasingly well | insoluble in most solvents | dissolve increasingly well
C1NCC2CNCC1C2.CN(C)C=O.[Cl][Pt][Cl] [1b, (C7H14N2)PtCl2·DMF] | – | – | – | dissolve increasingly well | dissolve increasingly well | insoluble in most solvents | dissolve increasingly well
C1NCC2CNCC1C2.O=C1[O][Pt][O]C(=O)C12CCC2 [2a, (C7H14N2)Pt{(O2C)2C4H6}] | 8.84 µM | 57.1 µM | 6.46 | poor | – | – | more soluble in water than the dichloride 1
N.N.O=C([O-])C1(C(=O)[O-])CCC1.[Pt+2] [carboplatin, reference compound] | 4.23 µM | 40.2 µM | 9.50 | – | – | – | –
N.N.[Cl][Pt][Cl] [cisplatin, cis-(NH3)2PtCl2, reference compound] | 1.38 µM | – | – | – | – | – | –
C1NCC2CNCC1C2.O=C1[O][Pt][O]C1=O [compound 3, (C7H14N2)Pt(C2O4)] | 7.24 µM | 35.3 µM | 4.88 | – | – | – | –
[Cl][Pt]1([Cl])[N]2CC3C[N]1CC(C2)C31OCCO1 [compound 4, (Spiro[bispidin-9,2'-[1,3]dioxolane])platinum(II)dichloride] | – | – | – | – | – | insoluble in all solvents, including DMSO | –
O=C([O-])C1(C(=O)[O-])CCC1.OC1(O)C2CNCC1CNC2.[Pt+2] [compound 6, (Bispidin-9,9-diol)platinum(II)(1,1-cyclobutanedicarboxylate)] | – | – | – | dissolves well | dissolves well | – | dissolves well
